# According to patent US20140378408A1, “NUCLEOSIDE 5'-PHOSPHOROTHIOATE ANALOGUES AND USES THEREOF” (BAR-ILAN UNIVERSITY, an Israeli University, priority 2012, published 2014):
# Legend:
# [1] = IV administration to mice, detection in blood by HPLC; assay type: in vivo
# [2] = Affinity to Zn^2+ ions (log K); assay type: physicochemical
# [3] = molecular target: T1, NPP1 from matrix vesicles (MVs) (Homo sapiens, UniProt P22413); test: NTMP hydrolysis in matrix vesicles; assay type: biochemical; details: 0.1 mM, NTMP 0.1 mM, OD 405 nm
# T1 construct: Its hydrolysis by endogenous enzyme (NPP1) from matrix vesicles (MVs); from tissue; host or cells: matrix vesicles (MVs)
# T1 sequence (P22413 whole entry): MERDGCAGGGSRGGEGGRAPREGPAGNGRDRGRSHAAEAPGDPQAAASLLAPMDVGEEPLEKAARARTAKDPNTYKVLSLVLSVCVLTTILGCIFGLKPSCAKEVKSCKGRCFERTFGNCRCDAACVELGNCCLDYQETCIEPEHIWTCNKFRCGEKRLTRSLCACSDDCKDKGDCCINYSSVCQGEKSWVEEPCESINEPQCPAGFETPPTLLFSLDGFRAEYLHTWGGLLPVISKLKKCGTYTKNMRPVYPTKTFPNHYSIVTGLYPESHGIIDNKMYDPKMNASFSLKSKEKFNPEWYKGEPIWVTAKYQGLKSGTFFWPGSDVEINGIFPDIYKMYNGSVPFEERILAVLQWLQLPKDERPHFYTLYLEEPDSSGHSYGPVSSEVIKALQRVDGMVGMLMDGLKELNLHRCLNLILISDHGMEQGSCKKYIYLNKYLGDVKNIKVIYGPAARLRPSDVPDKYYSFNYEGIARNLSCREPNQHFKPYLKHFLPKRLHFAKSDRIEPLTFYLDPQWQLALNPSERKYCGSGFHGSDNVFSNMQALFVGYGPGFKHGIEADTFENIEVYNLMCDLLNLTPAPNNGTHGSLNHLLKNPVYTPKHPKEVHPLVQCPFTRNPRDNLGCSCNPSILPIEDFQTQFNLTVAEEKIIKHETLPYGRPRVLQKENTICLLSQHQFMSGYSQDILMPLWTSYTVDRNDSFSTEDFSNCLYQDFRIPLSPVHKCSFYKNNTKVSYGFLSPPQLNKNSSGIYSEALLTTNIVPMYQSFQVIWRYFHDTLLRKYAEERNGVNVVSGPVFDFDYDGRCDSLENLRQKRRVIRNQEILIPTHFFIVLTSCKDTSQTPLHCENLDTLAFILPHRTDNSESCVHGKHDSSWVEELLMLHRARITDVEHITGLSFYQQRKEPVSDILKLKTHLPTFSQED
# Experimental: (§1) Increased chondrocyte PPi production, and PPi-generating NPP1 activity are linked with CPPD crystal deposition disease, common in aging and osteoarthritic cartilage. […] Its hydrolysis by endogenous enzyme (NPP1) from matrix vesicles (MVs), human chondrocytes or cartilage pieces results in elevated OD at 405 nm.
# In order to test the ability of the NPP1 inhibitor APPCCl2P-α-S (isomer A) to inhibit NTMP hydrolysis in MVs, MVs at 2.6 mg/ml (final concentration) were incubated with 0.1 mM NTMP in 2-[(2-Hydroxy-1,1-bis(hydroxymethyl)ethyl)amino]ethanesulfonic acid (TES; Sigma catalog number T1375), pH 7.37, in the presence or absence of 0.1 mM of said NPP1 inhibitor for 0, 15′, 30′, 1, 2, 4, 8 hours at 37° C. At each time point the reaction was read at 405 nm.
# [4] = tested on: matrix vesicles (MVs); test: CPPD formation in MVs by FTIR analysis; parameters: species or system human; details: MV+ATP+analogue
# [5] = tested on: human chondrocyte cells; test: NTMP hydrolysis in human chondrocyte cells; assay type: cell-based; details: 0.1 mM, NTMP 0.1 mM, OD 405 nm
# Experimental: as §1
# In order to test the ability of the NPP1 inhibitor to inhibit NTMP hydrolysis in human chondrocyte cells, human chondrocytes 1.5×10^4 per well were seeded in 96 well plate in 100 μl DMEM/10% fetal calf serum (FCS). One day before the experiment, the medium was changed to DMEM only (w/o phenol red). Human chondrocytes were incubated with 0.1 mM NTMP in TES, pH 7.37, in the presence or absence of 0.1 mM of the NPP1 inhibitor for 0, 15′, 30′, 1, 2, 4, 6, 18 hours at 37° C. At each time point the reaction was read at 405 nm.
# [6] = tested on: cartilage pieces; test: NTMP hydrolysis in cartilage pieces; parameters: species or system human; details: 0.1 mM, NTMP 0.1 mM, OD 405 nm
# Source text: as §1
# In order to test the ability of the NPP1 inhibitor to inhibit NTMP hydrolysis in cartilage pieces, 12 pieces of cartilage of a uniform diameter were weighed and placed in wells of a 96-well plate overnight in DMEM w/o phenol red with penicillin-streptomycin-glutamine (PSG). The pieces of cartilage were incubated with 0.1 mM NTMP in TES, pH 7.37, in the presence or absence of 0.1 mM of the NPP1 inhibitor for 0, 15′, 30′, 1, 2, 4, 6, 8 hours at 37° C. At each time point 200 μl were removed from each well and the reaction was read at 405 nm.
# [7] = tested on: chondrocytes; test: Pyrophosphate formed by ATP hydrolysis in the presence of chondrocytes (fluorogenic sensor); assay type: cell-based, human; details: 8 h, ATP alone 0.46 μM, without chondrocytes 0.26 μM
# [8] = molecular target: T2, Aβ28-Cu^+ complex (Homo sapiens, UniProt P05067); test: Titration of Aβ28-Cu^+ complex by chelators monitored by 1H-NMR; details: 0.8 mM Aβ28-Cu^+, pD 7
# T2 construct: we first studied Aβ28, as a more soluble fragment of Aβ40; purchased Sigma-Aldrich
# T2 sequence (P05067 672-699 limits assumed, one chain of several): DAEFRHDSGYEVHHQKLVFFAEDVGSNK
# [9] = tested on: PC12 cells; test: Stability of nucleotides in PC12 cells
# [10] = molecular target: T3, Aβ40-Cu^2+ aggregates (Homo sapiens, UniProt P05067); test: TEM, size reduction of Aβ40-Cu^2+ aggregates; details: 6 eq, 7 h; aggregates 2.5 μm before
# T3 construct: purchased GL-Biochem (Shanghai)
# T3 sequence (P05067 672-711): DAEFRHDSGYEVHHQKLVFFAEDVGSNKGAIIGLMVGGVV
# Experimental: TEM sample was prepared from 200 μM Aβ-M^2+ 1:1 solution (pH 7.4 or 6.6 for Aβ40-Zn^2+ or Aβ40-Cu^2+, respectively) incubated in a rotary shaker for 9 days at RT. A cloudy mixture with massive sediments was obtained. TEM samples were prepared by diluting the stock solutions with PBS to a concentration of 25 μM with or without APCPP-γ-S. In this way four samples were obtained: (i) 25 μM Aβ40-Cu^2+; (ii) 25 μM Aβ40-Cu^2+ containing 150 μM APCPP-γ-S; (iii) 25 μM Aβ40-Zn^2+; and (iv) 25 μM Aβ40-Zn^2+ containing 150 μm APCPP-γ-S. The mixtures were incubated in a rotary shaker for 7 h and after vortexing, a sample was transferred to a gold grid, for Aβ40-Cu^2+, or a copper grid for Aβ40-Zn^2+. The wet grid was left to dry at RT overnight.
# To validate the DLS data indicating the efficiency of APCPP-γ-S, we monitored the dissolution of Aβ40-M^2+ aggregates in the presence of APCPP-γ-S by TEM. Aβ40-Cu^2+ and Aβ40-Zn^2+ 1:1 complexes were incubated for 9 days at RT, resulting in a significant sediment. Aβ40-Cu^2+ aggregates of 2.5 μm in diameter (FIG. 6A) and Aβ40-Zn^2+ aggregates of different sizes from 100 nm to 2.5 μm (FIG. 6C) were observed by TEM measurements. APCPP-γ-S (6 eq) was then added and the mixture was incubated for 7 h.
# [11] = molecular target: T4, Aβ40-Cu^+ complex (Homo sapiens, UniProt P05067); test: Re-solubilization of Aβ40-Cu^+ aggregates monitored by 1H-NMR; details: 6 eq, pD 7.8
# T4 construct: purchased GL-Biochem (Shanghai)
# T4 sequence (P05067 672-711, one chain of several): as the sequence (P05067 672-711) above
# Experimental: ^1H-NMR spectrum of 0.25 mM Aβ40 (concentration determined by UV) in 10 mM TRIS-d11 (500 μl, pD 11) was measured at 278 K. The pD was adjusted to 7.8 by the addition of 0.1 N DCl (33 μl), and ^1H-NMR spectrum was measured (700 MHz, 80 scans), as well as after each of the following additions: (A) 8.3 mM Cu^+ (15 μl, 1 eq); (B) 6 mM compound 7 (21 μl, 1 eq); (C) 6 mM compound 7 (42 μL, 3 eq); (D) of 6 mM APCPP-γ-S (62.4 μl, 6 eq); (E) of 6 mM APCPP-γ-S (62.4 μl, 9 eq). At the end of the titration, the acetonitrile concentration was 2% (v/v) in 735.8 μl, pD 8.4.
# APCPP-γ-S, the most promising chelator identified here, was used also to resolubilize Aβ40-Cu^+ aggregates. This process was monitored by ^1H-NMR similar to that described above for Aβ28. First, the ^1H-NMR spectrum of 0.25 mM Aβ40 monomer at 278 K, pD 11, was measured (FIG. 7a), after adjustment of Aβ40 solution pD to 7.8 the signals shifted and broadened (FIG. 7b). Upon addition of 1 eq 8.3 mM Cu(CH3CN)4PF6 the signals dramatically further broadened (FIG. 7c).
compound,measurement,setting,value
"Nc1ncnc2c1ncn2[C@@H]1O[C@H](COP(O)(=S)OP(=O)(O)C(Cl)(Cl)P(=O)(O)O)[C@@H](O)[C@H]1O (single isomer, unassigned) [APPCCl2P-α-S, adenosine 5′-[Pα-thio]-β,γ-(dichloromethylene)triphosphate]",detection in blood after IV administration,[1],could be detected in blood (by HPLC) even after 3 h
same,log K (Zn^2+),[2],6.5
same,times higher affinity to Zn^2+ ions as compared to ATP,[2],50
"Nc1ncnc2c1ncn2[C@@H]1O[C@H](COP(O)(=S)OP(=O)(O)C(Cl)(Cl)P(=O)(O)O)[C@@H](O)[C@H]1O (single isomer, unassigned; isomer a) [APPCCl2P-α-S (isomer A), adenosine 5′-[Pα-thio]-β,γ-(dichloromethylene)triphosphate]",inhibition of NTMP hydrolysis in MVs,[3],inhibit the hydrolysis of NTMP
same,CPPD production in MVs (FTIR bands 920 and 1125 cm^−1),[4],a decrease in production of CPPD
same,inhibition of NTMP hydrolysis in human chondrocyte cells,[5],inhibit the hydrolysis of NTMP
same,inhibition of NTMP hydrolysis in cartilage pieces,[6],inhibit the hydrolysis of NTMP
same,PPi formed on co-application with ATP,[7],0.029 µM
"Nc1ncnc2c1ncn2[C@@H]1O[C@H](COP(=O)(O)OP(O)(O)=S)[C@@H](O)[C@H]1O [ADP-β-S, adenosine 5′-[β-thio]diphosphate, reference compound]",equivalents at which the spectrum resembled that of pure Aβ28,[8],5 eq
same,"fold more stable in PC12 cells than parent nucleotide (GDP, ADP)",[9],3 fold
"Nc1ncnc2c1ncn2[C@@H]1O[C@H](COP(=O)(O)CP(=O)(O)OP(O)(O)=S)[C@@H](O)[C@H]1O [APCPP-γ-S, adenosine 5′-[Pγ-thio]-α,β-methylenetriphosphate]",aggregate size after addition,[10],less than 250 nm
same,effect on Aβ40-Cu^+ 1H-NMR spectrum,[11],all signals reappeared
